# According to the NIST ThermoML archive (doi:10.1021/je060163o):
# Numbers after ± are expanded uncertainties.
# How the values were obtained:
# [1] = refractive index (Na D-line) (dimensionless); details: 298.15 K; 101.33 kPa; Liquid; Standard Abbe refractometry
# [2] = Liquid; for vapor or sublimation pressure: Twin ebulliometer
Compound,refractive index [1],vapor or sublimation pressure ([2]; 292.33 K),vapor or sublimation pressure ([2]; 303.83 K),vapor or sublimation pressure ([2]; 311.14 K),vapor or sublimation pressure ([2]; 317.9 K),vapor or sublimation pressure ([2]; 323.09 K),vapor or sublimation pressure ([2]; 326.8 K),vapor or sublimation pressure ([2]; 330.56 K),vapor or sublimation pressure ([2]; 333.94 K),vapor or sublimation pressure ([2]; 337.18 K),vapor or sublimation pressure ([2]; 339.97 K),vapor or sublimation pressure ([2]; 342.3 K),"mass density ([2]; 298.15 K, 101.33 kPa)"
CCO [ethanol],1.3596 ± 0.0004,5.59 ± 0.15 kPa,10.86 ± 0.15 kPa,16.15 ± 0.16 kPa,22.84 ± 0.17 kPa,29.41 ± 0.18 kPa,35.11 ± 0.19 kPa,41.76 ± 0.21 kPa,48.61 ± 0.22 kPa,56.06 ± 0.24 kPa,63.2 ± 0.26 kPa,69.73 ± 0.27 kPa,–
CO [methanol],1.3266 ± 0.0004,–,–,–,–,–,–,–,–,–,–,–,786.59 ± 0.62 kg/m3
